Measurements: US20210369816A1, “FORMULATIONS OF ABALOPARATIDE, TRANSDERMAL PATCHES THEREOF, AND USES THEREOF” (priority 2016, published 2021)

Experiments:
treated subjects = settings: subcutaneous administration; cited from earlier work
[1] = tested on: ovariectomy-induced osteopenic rats and monkeys; settings: ovariectomy-induced osteopenic rats and monkeys (Doyle 2013a; Doyle 2013b; Hattersley 2013); cited from earlier work
rat femur fracture model = test: Rat femur fracture model (fracture healing); type: in vivo
Text: Certain embodiments of the methods disclosed herein also include the use of the microprojection arrays as described herein in their various embodiments to accelerate fracture healing in a patient who has suffered one or more fractures and for which the fractures are not completely healed. Healing of bone fractures (eg long bone fractures) involves endochondral and intramembranous bone formation, which together form a callus that achieves union, stabilization, and gradual recovery of bone strength. […] Sixteen rats from each group were necropsied after 4 and 6 weeks of healing, with 12 fractured femurs per group used for micro-CT and biomechanical testing and the other 4 femurs used for micro-CT and histology.

[2] = 25 ug/kg/d sc daily, week 4, P<0.05 vs VEH

[Glu^22,25, Leu^23,28,31, Aib^29, Lys^26,30]hPTHrP(1-34)NH2 [abaloparatide]
bone mineral density (BMD) and/or trabecular bone score (TBS) at the lumbar spine, total hip, and femoral neck (treated subjects): improve | bone loss [1]: complete reversal of bone loss | callus stiffness, higher vs VEH (three-point bending) (rat femur fracture model; 5 ug/kg/d sc daily, week 4, P<0.05 vs VEH): 60% | callus stiffness, higher vs VEH (three-point bending) (rat femur fracture model; 5 ug/kg/d sc daily, week 6, P<0.05 vs VEH): 112% | callus peak load, higher vs VEH (rat femur fracture model; [2]): 77% | callus stiffness, higher vs VEH (three-point bending) (rat femur fracture model; [2]): 96% | callus area (histomorphometry) vs VEH (rat femur fracture model; 5 and 25 ug/kg/d, week 4): significantly greater callus area | micro-CT of fracture calluses vs VEH (rat femur fracture model; 5 and 25 ug/kg/d, weeks 4 and 6): significantly greater callus bone volume, bone volume fraction, and BMC | histologic scoring of cortical bridging across the fracture gap vs VEH (rat femur fracture model; 5 or 25 ug/kg/d, week 4): significantly greater bridging | callus peak load vs VEH (rat femur fracture model; both abaloparatide groups (5 and 25 ug/kg/d), week 6): numerically higher
